The source made the active and inactive calls.
Legend:
[1] = target: T1, Replicative DNA helicase DnaB (Mycobacterium tuberculosis, UniProt P9WMR3); experiment: DnaB intein splicing inhibitors, dose response, biochemical, cell-free fluorescence (AID 449749); type: functional
T1 sequence (P9WMR3 whole entry): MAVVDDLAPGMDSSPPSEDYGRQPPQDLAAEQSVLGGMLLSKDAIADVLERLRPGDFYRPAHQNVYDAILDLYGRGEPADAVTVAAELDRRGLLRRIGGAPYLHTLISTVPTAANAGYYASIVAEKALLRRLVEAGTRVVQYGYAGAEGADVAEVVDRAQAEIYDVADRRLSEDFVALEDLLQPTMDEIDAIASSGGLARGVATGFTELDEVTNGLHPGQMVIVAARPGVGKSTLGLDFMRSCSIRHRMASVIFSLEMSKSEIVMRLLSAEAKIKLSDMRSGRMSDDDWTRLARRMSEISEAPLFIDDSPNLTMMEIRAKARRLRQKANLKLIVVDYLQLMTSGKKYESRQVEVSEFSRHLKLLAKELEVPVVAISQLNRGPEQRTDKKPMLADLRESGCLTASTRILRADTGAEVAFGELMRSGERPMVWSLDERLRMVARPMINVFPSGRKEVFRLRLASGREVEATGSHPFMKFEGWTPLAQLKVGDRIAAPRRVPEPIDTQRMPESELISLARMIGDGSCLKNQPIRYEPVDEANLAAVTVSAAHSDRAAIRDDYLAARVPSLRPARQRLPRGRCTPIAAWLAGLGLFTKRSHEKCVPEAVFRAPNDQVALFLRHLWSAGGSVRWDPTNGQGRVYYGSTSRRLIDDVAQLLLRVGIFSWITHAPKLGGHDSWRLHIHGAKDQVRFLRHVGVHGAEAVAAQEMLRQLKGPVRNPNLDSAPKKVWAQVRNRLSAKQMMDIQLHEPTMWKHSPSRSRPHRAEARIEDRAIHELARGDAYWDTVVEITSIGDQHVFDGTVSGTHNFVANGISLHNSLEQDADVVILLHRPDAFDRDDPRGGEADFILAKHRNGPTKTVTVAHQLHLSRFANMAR

[2] = inhibitors of clade B AD8 Env fusion, dose response, cell-based, cherry-pick (AID 652062); type: functional;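 also: luciferase signal from cell-cell fusion driven by HIV-1 clade B AD8 Env; potency is for inhibitors of fusion seen as a drop in luminescence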
Protein RecA = target: T2, Protein RecA (Mycobacterium tuberculosis, UniProt P9WHJ3); experiment: Fluorescence Cell-Free Homogeneous Dose Retest to Identify Inhibitors of RecA-Intein Splicing Activity. [Related pubchem assays (depositor defined):AID2097, AID2223, AID489010, AID492950]; type: functional
T2 sequence (P9WHJ3 whole entry): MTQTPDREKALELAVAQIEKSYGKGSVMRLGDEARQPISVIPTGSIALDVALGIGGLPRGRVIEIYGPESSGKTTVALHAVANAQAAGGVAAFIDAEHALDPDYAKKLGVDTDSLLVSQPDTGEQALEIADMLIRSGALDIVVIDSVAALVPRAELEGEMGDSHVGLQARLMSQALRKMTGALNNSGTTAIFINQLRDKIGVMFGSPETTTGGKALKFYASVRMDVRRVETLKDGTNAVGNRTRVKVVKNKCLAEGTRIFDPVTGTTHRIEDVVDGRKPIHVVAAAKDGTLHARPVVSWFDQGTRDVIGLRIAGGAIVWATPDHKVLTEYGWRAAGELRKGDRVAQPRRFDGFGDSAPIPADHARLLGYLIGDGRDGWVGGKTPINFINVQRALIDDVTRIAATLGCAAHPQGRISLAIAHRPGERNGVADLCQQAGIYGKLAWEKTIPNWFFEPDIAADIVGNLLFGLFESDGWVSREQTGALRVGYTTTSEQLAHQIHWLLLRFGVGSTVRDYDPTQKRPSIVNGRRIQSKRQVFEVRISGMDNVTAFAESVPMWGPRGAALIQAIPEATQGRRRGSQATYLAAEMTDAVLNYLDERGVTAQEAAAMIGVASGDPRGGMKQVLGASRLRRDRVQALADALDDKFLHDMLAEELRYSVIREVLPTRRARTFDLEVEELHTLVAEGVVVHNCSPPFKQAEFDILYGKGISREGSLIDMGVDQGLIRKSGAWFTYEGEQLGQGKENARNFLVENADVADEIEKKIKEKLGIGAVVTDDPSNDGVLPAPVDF

[3] = off-target signal loss in HeLa-CEM21 co-culture – HeLa F-luc CTL cells, cherry-picked, counter-screen for HIV-1 Env fusion inhibitor project, dose response (AID 652040); type: functional, cell-based;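 also: potency for signal decrease marking cytotoxic or nonspecific inhibition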
[4] = CEM21 lymphoblast cell cytotoxicity, dose response, cytotoxicity control for viral fusion inhibitor project, CellTiter-Glo luminescence, cherry-picked (AID 652042); type: functional, cell-based;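 also: potency for signal decrease meaning cytotoxicity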
[5] = inhibitors of HIV Env-driven cell fusion, dose response, cherry-pick (AID 652057); type: functional, cell-based
[6] = Luminescence Cell-Based Dose Retest to Confirm Inhibitors of Cancer Stem Cells. [Related pubchem assays (depositor defined):AID2717, AID2721]; type: functional; details: Homo sapiens
[7] = CRF-BP/CRF-R2 complex antagonists, dose response, cell-based, uHTS hits, 384-well (AID 651639); type: functional, Homo sapiens; details: read-out: IC50_Mean
[8] = target: T3, Corticotropin-releasing factor receptor 2/Corticotropin-releasing factor-binding protein (Homo sapiens, UniProt P24387+Q13324); experiment: Dose Response confirmation of uHTS hits for small molecule antagonists of the CRF-binding protein and CRF-R2 receptor complex.; type: functional; details: read-out: IC50_Mean
T3 sequence (Q13324 whole entry): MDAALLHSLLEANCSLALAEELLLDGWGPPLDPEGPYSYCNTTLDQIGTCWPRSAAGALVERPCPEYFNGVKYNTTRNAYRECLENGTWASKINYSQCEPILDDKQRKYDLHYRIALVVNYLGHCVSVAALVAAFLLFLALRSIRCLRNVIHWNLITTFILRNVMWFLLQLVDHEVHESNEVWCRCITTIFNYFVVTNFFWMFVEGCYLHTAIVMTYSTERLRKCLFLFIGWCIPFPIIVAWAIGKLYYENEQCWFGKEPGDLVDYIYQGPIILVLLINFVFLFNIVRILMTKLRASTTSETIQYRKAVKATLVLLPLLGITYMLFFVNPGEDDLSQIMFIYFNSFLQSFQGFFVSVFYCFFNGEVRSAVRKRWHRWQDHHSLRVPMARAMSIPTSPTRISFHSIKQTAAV
T3 sequence (P24387 whole entry): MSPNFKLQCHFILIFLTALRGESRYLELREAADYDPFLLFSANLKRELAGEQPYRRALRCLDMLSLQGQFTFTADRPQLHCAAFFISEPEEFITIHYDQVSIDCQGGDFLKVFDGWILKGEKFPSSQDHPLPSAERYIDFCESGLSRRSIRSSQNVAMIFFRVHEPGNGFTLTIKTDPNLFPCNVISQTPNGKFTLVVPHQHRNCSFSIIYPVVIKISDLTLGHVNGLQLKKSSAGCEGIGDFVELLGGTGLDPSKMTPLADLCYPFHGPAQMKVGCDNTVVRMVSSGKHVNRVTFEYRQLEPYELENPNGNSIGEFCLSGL

[9] = target: T3, Corticotropin-releasing factor receptor 2/Corticotropin-releasing factor-binding protein; experiment: activators of CRF receptor 2 with binding protein – uHTS hits, confirmation (AID 602473); type: functional; details: read-out: EC50_Mean
[10] = human group III sPLA2 inhibitors, dose response, biochemical, QFRET, IC50 (AID 743457);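 also: green fluorescence rise as the enzyme cleaves BODIPY PC-A2 in liposomes; potency for inhibition of the enzyme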
cells = type: functional, cell-based
[11] = target: T4, Nuclear receptor subfamily 0 group B member 1 (Homo sapiens, UniProt P51843); type: functional, cell-based;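 also: HEK293T cells transfected with SF-1 and DAX-1 plus StAR promoter luciferase reporter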
T4 sequence (P51843 whole entry): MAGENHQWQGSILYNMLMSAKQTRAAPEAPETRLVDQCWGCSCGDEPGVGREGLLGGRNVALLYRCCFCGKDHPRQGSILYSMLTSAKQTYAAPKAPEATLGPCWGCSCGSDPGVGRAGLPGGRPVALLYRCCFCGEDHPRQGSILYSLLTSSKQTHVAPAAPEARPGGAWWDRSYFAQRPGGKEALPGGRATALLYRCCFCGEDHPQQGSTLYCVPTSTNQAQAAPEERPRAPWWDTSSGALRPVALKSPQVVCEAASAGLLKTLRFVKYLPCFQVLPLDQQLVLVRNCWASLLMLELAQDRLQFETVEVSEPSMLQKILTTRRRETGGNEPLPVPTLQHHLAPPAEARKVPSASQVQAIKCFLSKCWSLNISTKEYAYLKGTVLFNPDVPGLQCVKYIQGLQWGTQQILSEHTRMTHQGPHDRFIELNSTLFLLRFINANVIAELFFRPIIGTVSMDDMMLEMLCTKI

[12] = NIH:OVCAR-3 ovarian cancer cell cytotoxicity, dose response, PAX8 inhibitor project, plate reader, dry powder samples (AID 743044); type: functional, cell-based
[13] = IGROV1 ovarian cancer cell cytotoxicity, dose response, PAX8 inhibitor project, plate reader, dry powder samples (AID 743043); type: functional, cell-based; details: IGROV-1
[14] = NIH/3T3 fibroblast cytotoxicity, dose response, cytotoxicity control for T. cruzi growth inhibitor project, cell-based, cherry-pick samples, set 2 (AID 651817); type: functional; details: NIH3T3
Paired box protein Pax-8 = Paired box protein Pax-8 (Homo sapiens, UniProt Q06710); experiment: inhibitors of PAX8-driven TPO luciferase reporter, dose response, RMG-I cells, cherry-pick (AID 687027); type: functional, cell-based;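 also: luciferase reporter driven by Pax8 target thyroperoxidase promoter measured by SteadyGlo luminescence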
[15] = cytotoxicity in OVCAR8 ovarian cancer cells, dose response, PAX8 project, cell-based, plate reader, dry powder samples (AID 743197); type: functional; details: OVCAR-8
[16] = ZM109 Env clade C HIV-1 fusion inhibitors, dose response, HeLa effector, CEM target cells, luciferase, cherry-pick (AID 652058); type: functional, cell-based
[17] = A2780 ovarian cancer cell cytotoxicity, dose response, cytotoxicity control, plate reader, dry powder samples (AID 743046); type: functional, cell-based
[18] = T. cruzi intracellular amastigote growth inhibition, dose response, imaging, CA-I/72 strain, bovine embryo skeletal muscle, dry powder (AID 651885); type: functional, cell-based
[19] = T. cruzi growth inhibition in host cells, dose response, cell-based, plate reader, dry powder, set 2 (AID 652275); type: functional

Sequence of Paired box protein Pax-8 (Q06710 whole entry): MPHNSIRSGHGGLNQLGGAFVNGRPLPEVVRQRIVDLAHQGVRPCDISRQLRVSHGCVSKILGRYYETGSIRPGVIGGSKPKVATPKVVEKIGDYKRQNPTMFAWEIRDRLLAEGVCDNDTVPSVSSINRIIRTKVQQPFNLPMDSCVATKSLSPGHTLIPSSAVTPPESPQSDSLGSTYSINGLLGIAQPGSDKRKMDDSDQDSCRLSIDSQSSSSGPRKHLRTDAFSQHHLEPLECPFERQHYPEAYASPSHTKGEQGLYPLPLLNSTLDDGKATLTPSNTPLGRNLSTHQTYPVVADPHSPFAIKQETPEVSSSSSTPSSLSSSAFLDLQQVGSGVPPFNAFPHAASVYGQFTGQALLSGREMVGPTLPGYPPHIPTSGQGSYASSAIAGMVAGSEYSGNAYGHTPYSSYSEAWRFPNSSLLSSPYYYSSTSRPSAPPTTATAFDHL

Which results are given for `COc1ccccc1/C=C/C1(C(=O)NC2CCCC2)CC(=O)N1c1ccc(F)cc1` (configuration not stated)?
AC50 [1]: 3.57 µM (active); AC50 [2]: 25.2 µM (active); EC50 (Protein RecA): 2.82 µM (active); AC50 [3]: 5.48 µM (active); AC50 [4]: 12.7 µM (active); AC50 [5]: 3.35 µM (active); AC50 [6]: 6.36 µM (active)

With `CC1(C)CC(=O)C(C2C3=C(CC(C)(C)CC3=O)Oc3ccc4ccccc4c32)C(=O)C1` (configuration not stated) as the compound, how does the IC50 [7] read?
Its IC50 is > 20 µM (inactive).

What about the IC50 [8] of the same compound?
The IC50 was 14.8 µM (active).

What about the EC50 [9] of the same compound?
The EC50 was 31.8 µM (active).

With `Cc1ccc(C)c(NC(S)=NNC(=O)c2csc(C)c2C)c1` as the compound, how does the IC50 [10] read?
The IC50 was > 122 µM (inactive).

Which IC50 (cells) does the source give for `COc1ccc(C(=O)Nc2nnc(SCC(=O)NC3CCCC3)s2)c(OC)c1` here?
Its IC50 is > 67.5 µM (inactive).

What about the IC50 [11] of the same compound?
Its IC50 is > 92.6 nM (active).

What does the source list for `C[C@@H]1CN([C@@H](C)CO)C(=O)Cc2cc(NS(=O)(=O)c3ccc(F)cc3)ccc2O[C@H]1CN(C)Cc1ccc(Cl)c(Cl)c1`?
AC50 [12]: 27.8 µM (active); AC50 [13]: 12.6 µM (active); AC50 [2]: 1.52 µM (active); AC50 [14]: 7.33 µM (active); AC50 (Paired box protein Pax-8): 3.12 µM (active); AC50 [15]: 49.4 µM (active); AC50 [5]: 15.4 µM (active); AC50 [16]: 1.33 µM (active); AC50 [17]: 45.6 µM (active)

For `CC(C)N1C[C@H](C)[C@@H](CN(C)CC2CCOCC2)Oc2c(NC(=O)c3ccncc3)cccc2C1=O`, which IC50 [18] is on record?
Its IC50 is 5.83 µM (inconclusive).

With `CC(C)N1C[C@@H](CN(C)Cc2ccc(Cl)cc2)Oc2c(NC(=O)c3ncn[nH]3)cccc2C1=O` as the compound, how does the AC50 [19] read?
The AC50 was 5.99 µM (active).

With `Cc1cccc(NC(=O)c2cccc([N+](=O)[O-])c2O)c1C` as the compound, how does the IC50 [7] read?
Its IC50 is > 20 µM (inactive).

And the IC50 [8]?
Its IC50 is 5.93 µM (active).

And the EC50 [9]?
The EC50 was > 53 µM (inactive).

— ChEMBL document CHEMBL1201862, “PubChem BioAssay data set” (2004)
